Reference: PubChem BioAssay AID192 (DTP/NCI, 2004)
Inconclusive results and toxic doses are left out.

System: BDF1 mice, B16 melanoma ip, median survival T/C
Test: NCI In Vivo Anticancer Drug Screen. Data for tumor model B16 Melanoma (intraperitoneal) in B6D2F1 (BDF1) mice
Conditions: endpoint: median survival time, higher = longer survival
Outline: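 In this screen, activity was judged from survival or tumor size in treated versus vehicle-treated tumor-bearing mice, reported as T/C.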

Compound | T/C (dose: 25.0 mg/kg/injection, schedule: Q04DX003 (ip), vehicle: saline) | T/C (dose: 50.0 mg/kg/injection, schedule: Q04DX003 (ip), vehicle: saline) | T/C (dose: 100.0 mg/kg/injection, schedule: Q04DX003 (ip), vehicle: saline) | T/C (dose: 12.5 mg/kg/injection, schedule: Q01DX009 (ip), vehicle: saline with Tween-80) | T/C (dose: 25.0 mg/kg/injection, schedule: Q01DX009 (ip), vehicle: saline with Tween-80)
O=[N+]([O-])c1cc([N+](=O)[O-])cc(S(=O)(=O)O)c1 | 108 % of control | 97 % of control | 87 % of control |  | 
CC1=NCCc2c1cc1c([nH]c3ccccc31)c2C |  |  |  | 105 % of control | 110 % of control
